According to ChEMBL document CHEMBL3616468, “Spirooxindole-derived morpholine-fused-1,2,3-triazoles: Design, synthesis, cytotoxicity and apoptosis inducing studies” (Eur J Med Chem, 2015):
Active and inactive are the calls of the source. The calls are words filed in the database; no cut-off is given here.

Tests used:
MCF7 = experiment: Antiproliferative activity against human MCF7 cells after 48 hrs by MTT assay; assay type: functional, cell-based; settings: MCF7, 48 h
HeLa = experiment: Antiproliferative activity against human HeLa cells after 48 hrs by MTT assay; assay type: functional, cell-based
DU-145 = experiment: Antiproliferative activity against human DU145 cells after 48 hrs by MTT assay; assay type: functional, cell-based; settings: DU-145, 48 h
A549 [1] = experiment: Antiproliferative activity against human A549 cells after 48 hrs by MTT assay; assay type: functional, cell-based; settings: A549, 48 h
A549 [2] = experiment: Induction of apoptosis in human A549 cells assessed as disruption of mitochondrial membrane potential at cytotoxic IC50 level after 24 hrs by rhodamine-123 staining based spectrofluorometry relative to control; assay type: functional
A549 [3] = experiment: Induction of apoptosis in human A549 cells assessed as increase in intracellular reactive oxygen species level at cytotoxic IC50 level after 24 hrs by DCFH-DA staining based spectrofluorometry relative to control; assay type: functional
A549 [4] = experiment: Inhibition of cell migration in human A549 cells at cytotoxic IC50 level after 24 to 48 hrs by wound healing assay; assay type: functional
A549 [5] = experiment: Induction of apoptosis in human A549 cells assessed as chromatin condensation at cytotoxic IC50 level after 24 hrs by […] staining based confocal fluorescence microscopic analysis; assay type: functional, cell-based
A549 [6] = experiment: Induction of morphological change in human A549 cells assessed as cell detachment at cytotoxic IC50 level after 48 hrs by phase contrast microscopic analysis; assay type: functional, cell-based
A549 [7] = experiment: Induction of morphological change in human A549 cells assessed as nucleus shrinkage at cytotoxic IC50 level after 48 hrs by phase contrast microscopic analysis; assay type: functional, cell-based
A549 [8] = experiment: Induction of apoptosis in human A549 cells assessed as horseshoe shaped nuclei at cytotoxic IC50 level after 24 hrs by […] staining based confocal fluorescence microscopic analysis; assay type: functional, cell-based
A549 [9] = experiment: Induction of apoptosis in human A549 cells assessed as fragmented nuclei at cytotoxic IC50 level after 24 hrs by […] staining based confocal fluorescence microscopic analysis; assay type: functional, cell-based
A549 [10] = experiment: Anticancer activity against human A549 cells assessed as decrease in viable cells at cytotoxic IC50 level after 48 hrs by phase contrast microscopic analysis; assay type: functional, cell-based
A549 [11] = experiment: Inhibition of cell migration in human A549 cells at cytotoxic IC50 level after 48 hrs by wound healing assay; assay type: functional
A549 [12] = experiment: Induction of cell cycle arrest in human A549 cells assessed as accumulation at G1 phase at 2 uM after 24 hrs by propidium iodide staining based flow cytometry (reference value: 72.27%); assay type: functional
A549 [13] = experiment: Induction of cell cycle arrest in human A549 cells assessed as accumulation at S phase at 1 uM after 24 hrs by propidium iodide staining based flow cytometry (reference value: 4.96%); assay type: functional
A549 [14] = experiment: Induction of apoptosis in human A549 cells assessed as destructive fragmentation of nuclei at 1 uM after 24 hrs by acridine orange/ethidium bromide staining based fluorescence microscopic analysis; assay type: functional, cell-based
A549 [15] = experiment: Induction of apoptosis in human A549 cells assessed as cell membrane blebbing at 0.5 uM after 24 hrs by acridine orange/ethidium bromide staining based fluorescence microscopic analysis; assay type: functional
A549 [16] = experiment: Induction of cell cycle arrest in human A549 cells assessed as accumulation at G2/M phase at 1 uM after 24 hrs by propidium iodide staining based flow cytometry (reference value: 21.85%); assay type: functional
A549 [17] = experiment: Induction of cell cycle arrest in human A549 cells assessed as accumulation at G2/M phase at 2 uM after 24 hrs by propidium iodide staining based flow cytometry (reference value: 21.85%); assay type: functional
A549 [18] = experiment: Induction of apoptosis in human A549 cells assessed as extremely condensed chromatin at 2 uM after 24 hrs by acridine orange/ethidium bromide staining based fluorescence microscopic analysis; assay type: functional, cell-based
A549 [19] = experiment: Induction of cell cycle arrest in human A549 cells assessed as accumulation at S phase at 2 uM after 24 hrs by propidium iodide staining based flow cytometry (reference value: 4.96%); assay type: functional
A549 [20] = experiment: Induction of cell cycle arrest in human A549 cells assessed as accumulation at G1 phase at 1 uM after 24 hrs by propidium iodide staining based flow cytometry (reference value: 72.27%); assay type: functional
A549 [21] = experiment: Induction of apoptosis in human A549 cells assessed as extremely condensed chromatin at 0.5 uM after 24 hrs by acridine orange/ethidium bromide staining based fluorescence microscopic analysis; assay type: functional, cell-based
A549 [22] = experiment: Inhibition of cell migration in human A549 cells at cytotoxic IC50 level after 24 hrs by wound healing assay; assay type: functional
A549 [23] = experiment: Induction of apoptosis in human A549 cells assessed as irregular distribution of chromatin at 1 uM after 24 hrs by acridine orange/ethidium bromide staining based fluorescence microscopic analysis; assay type: functional, cell-based

O=C1N(Cc2ccc(Br)cc2)c2ccc(Cl)cc2C12Cn1nncc1CO2 (configuration not stated)
IC50 (MCF7): 31.6 µM
IC50 (HeLa): > 50 µM
IC50 (DU-145): > 50 µM
IC50 (A549 [1]): 23.4 µM

O=C1N(Cc2ccc(Br)cc2)c2ccccc2C12Cn1nncc1CO2 (configuration not stated)
IC50 (MCF7): 13.5 µM
IC50 (HeLa): 15.5 µM
IC50 (DU-145): 26.3 µM
IC50 (A549 [1]): 14.5 µM

CCN1C(=O)C2(Cn3nncc3CO2)c2cc(Br)ccc21 (configuration not stated)
IC50 (MCF7): > 50 µM
IC50 (HeLa): > 50 µM
IC50 (DU-145): > 50 µM
IC50 (A549 [1]): > 50 µM

Cc1ccc2c(c1)C1(Cn3nncc3CO1)C(=O)N2Cc1ccccc1 (configuration not stated)
IC50 (MCF7): 19.9 µM
IC50 (HeLa): 18.2 µM
IC50 (DU-145): 19.7 µM
IC50 (A549 [1]): 14.5 µM

COc1cccc2c1C(=O)c1c(O)c3c(c(O)c1C2=O)C[C@@](O)(C(=O)CO)C[C@@H]3O[C@H]1C[C@H](N)[C@H](O)[C@H](C)O1 [DOXORUBICIN]
IC50 (MCF7): 1.05 µM
IC50 (HeLa): 1.26 µM
IC50 (DU-145): 1.91 µM

CN1C(=O)C2(Cn3nncc3CO2)c2cc(Br)ccc21 (configuration not stated)
IC50 (MCF7): > 50 µM
IC50 (HeLa): > 50 µM
IC50 (DU-145): > 50 µM
IC50 (A549 [1]): > 50 µM

O=c1[nH]cc(F)c(=O)[nH]1 [FLUOROURACIL]
IC50 (HeLa): 8.32 µM
IC50 (DU-145): 6.07 µM
IC50 (A549 [1]): 7.24 µM

O=C1N(Cc2ccccc2)c2ccc(Cl)cc2C12Cn1nncc1CO2 (configuration not stated)
IC50 (MCF7): 16.5 µM
IC50 (HeLa): 15.1 µM
IC50 (DU-145): 33.3 µM
IC50 (A549 [1]): 12.9 µM

CN1C(=O)C2(Cn3nncc3CO2)c2cc(F)ccc21 (configuration not stated)
IC50 (MCF7): > 50 µM
IC50 (HeLa): > 50 µM
IC50 (DU-145): > 50 µM
IC50 (A549 [1]): > 50 µM

O=C1N(Cc2ccccc2)c2ccc(Br)cc2C12Cn1nncc1CO2 (configuration not stated)
IC50 (MCF7): 29.5 µM
IC50 (HeLa): 31.5 µM
IC50 (DU-145): 49 µM
IC50 (A549 [1]): 14.8 µM

CCN1C(=O)C2(Cn3nncc3CO2)c2cc(F)ccc21 (configuration not stated)
IC50 (MCF7): > 50 µM
IC50 (HeLa): > 50 µM
IC50 (DU-145): > 50 µM
IC50 (A549 [1]): > 50 µM

CCN1C(=O)C2(Cn3nncc3CO2)c2cc(Cl)ccc21 (configuration not stated)
IC50 (MCF7): 28.8 µM
IC50 (HeLa): > 50 µM
IC50 (DU-145): 23.4 µM
IC50 (A549 [1]): 15.8 µM

O=C1N(Cc2ccccc2)c2ccc(F)cc2C12Cn1nncc1CO2 (configuration not stated)
IC50 (MCF7): 35.9 µM
IC50 (HeLa): > 50 µM
IC50 (DU-145): 27.5 µM
IC50 (A549 [1]): 19.9 µM

O=C1N(Cc2ccc(Br)cc2)c2ccc(F)cc2C12Cn1nncc1CO2 (configuration not stated)
IC50 (MCF7): 8.31 µM
IC50 (HeLa): 14.6 µM
IC50 (DU-145): 37.1 µM
IC50 (A549 [1]): 4.36 µM

N#Cc1ccc(CN2C(=O)C3(Cn4nncc4CO3)c3ccccc32)cc1 (configuration not stated)
IC50 (MCF7): 17.2 µM
IC50 (HeLa): 21.4 µM
IC50 (DU-145): 20.4 µM
IC50 (A549 [1]): 12.6 µM

O=C1N(Cc2ccccc2)c2ccccc2C12Cn1nncc1CO2 (configuration not stated)
IC50 (MCF7): 17.8 µM
IC50 (HeLa): > 50 µM
IC50 (DU-145): > 50 µM
IC50 (A549 [1]): 10.5 µM

O=C1N(Cc2ccc(Br)cc2)c2ccc(Br)cc2C12Cn1nncc1CO2 (configuration not stated)
IC50 (MCF7): 6.29 µM
Activity (A549 [2]): Active
fold change (FC) (A549 [3]): 2.3
inhibition (INH) (A549 [4]): 38.1%
Activity (A549 [5]): Active
Activity (A549 [6]): Active
Activity (A549 [7]): Active
IC50 (HeLa): 12 µM
Activity (A549 [8]): Active
Activity (A549 [9]): Active
IC50 (DU-145): 8.14 µM
Activity (A549 [10]): Active
IC50 (A549 [1]): 4.26 µM

Cc1ccc2c(c1)C1(Cn3nncc3CO1)C(=O)N2C (configuration not stated)
IC50 (MCF7): 9.66 µM
IC50 (HeLa): 10.2 µM
IC50 (DU-145): 24 µM
IC50 (A549 [1]): 7.41 µM

CCN1C(=O)C2(Cn3nncc3CO2)c2ccccc21 (configuration not stated)
inhibition (INH) (A549 [11]): 56.1%
IC50 (MCF7): 8.87 µM
Activity (A549 [2]): 48.2%
fold change (FC) (A549 [3]): 2.6
inhibition (INH) (A549 [4]): 38.1%
Activity (A549 [5]): Active
Activity (A549 [12]): 46.04%
Activity (A549 [6]): Active
Activity (A549 [13]): 15.63%
Activity (A549 [14]): Active
Activity (A549 [15]): Active
Activity (A549 [7]): Active
IC50 (HeLa): 11.2 µM
Activity (A549 [16]): 19.77%
Activity (A549 [17]): 35.61%
Activity (A549 [8]): Active
Activity (A549 [18]): Active
Activity (A549 [19]): 16.2%
Activity (A549 [20]): 60.21%
Activity (A549 [9]): Active
IC50 (DU-145): 19.9 µM
Activity (A549 [10]): Active
Activity (A549 [21]): Active
inhibition (INH) (A549 [22]): 54.9%
IC50 (A549 [1]): 1.87 µM
Activity (A549 [23]): Active

CN1C(=O)C2(Cn3nncc3CO2)c2ccccc21 (configuration not stated)
IC50 (MCF7): 27.7 µM
IC50 (HeLa): 48 µM
IC50 (DU-145): > 50 µM
IC50 (A549 [1]): 20.1 µM

N#Cc1ccc(CN2C(=O)C3(Cn4nncc4CO3)c3cc(Cl)ccc32)cc1 (configuration not stated)
IC50 (MCF7): 10.2 µM
IC50 (HeLa): 22.3 µM
IC50 (DU-145): 28 µM
IC50 (A549 [1]): 7.94 µM

CN1C(=O)C2(Cn3nncc3CO2)c2cc(Cl)ccc21 (configuration not stated)
IC50 (MCF7): 35.5 µM
IC50 (HeLa): > 50 µM
IC50 (DU-145): > 50 µM
IC50 (A549 [1]): > 50 µM
